Measurements taken from patent US12102633B2, “Spirolactone compounds” (Quixgen, Inc., priority 2017, dated 2024).
“Also recorded” adds a separate entry of the source. Blank lines part the entries; values can stand above or below the compound they belong to.

Columns and labels:
[1] = system: Human sebocytes; assay: Proliferation of human sebocytes; format: cell-based; conditions: 24 hours, MTT, read-out: AP-Sebo IC50
Experimental: Human sebocytes (Celprogen) and keratinocytes (ATCC) were grown in 96-well culture microplate (Coming) with growth media to around 50% confluency. Media was changed to growth media mixed with serially diluted compounds in DMSO (1:1000 dilution). After treatment for 24 hours, media was changed to 100 μL phenol red free DMEM and cell numbers were quantitated by using Vybrant® MTT Cell Proliferation Assay Kit (Molecular Probes). Ten μL of 12 mM MTT stock solution was added to each well and the microplate was incubated at 37° C. for 4 hours. Then 100 μL of the SDS-HCl solution was added to each well and mixed thoroughly using a pipette. The microplate was incubated at 37° C. for 4 hours in a cell culture incubator. The microplate was mixed again using a pipette and absorbance was read at 570 nm (Dynex MRX^e Magellan Biosciences). Effect of compounds on proliferation of human keratinocytes was calculated by % of DMSO vehicle control.

[2] = system: 3T3-L1 adipocytes; assay: Lipogenesis of 3T3-L1 adipocytes; format: cell-based; conditions: Mus musculus, TG readout, read-out: LG-3T3 IC50
Experimental: 3T3-L1 fibroblast cells (Zen-Bio) were grown in 96-well culture microplate (Corning) with growth media to around 90-100% confluency. Culture media was changed to differentiation media (growth media supplemented with 3-Isobutyl-1-Methylxanthine 500 μM, Dexamethasone 1 μM, insulin 10 μg/mL, and rosiglitazone 2 μM) plus serially diluted compounds prepared in DMSO (1:1000 dilution). After incubation for 2 days, media was changed to maintenance media (growth media supplemented with insulin 10 μg/mL) plus serially diluted compounds prepared in DMSO (1:1000 dilution) for around 1 week with media changed every 2 days. Upon completion of the treatment, culture media are discarded and 200 μL 0.01% SDS was added to each well and shaken for 1 hour to lyse the cells. Cell lysates were then transferred to 400 μL Folch's solution (chloroform: methanol=2:1) and mixed well. After centrifuge at 2,000 rpm for 20 min, 200 μL of the lower organic phase was transferred to a plate with 10 μL sample buffer (chloroform:Triton-100=3:1). Samples were blown dried under nitrogen and 200 μL triglyceride (TG) quantification reagent (Thermo Fisher Scientific) was added, mixed, and incubated at 37° C. for 30 min. TG concentration was determined by reading absorbance at 535 nm (Dynex MRX^e Magellan Biosciences) and calculated from standard curve.

[3] = system: T1, Mouse ACC (ACC protein purified from liver); assay: Mouse ACC enzymatic activity assay; format: biochemical; conditions: read-out: EA-CoA mACC IC50
T1 construct: ACC protein was purified by taking advantage of the biotinylation in the carboxylase domain
Experimental: ACC protein was purified by taking advantage of the biotinylation in the carboxylase domain. Male C57BL/6J mice (Jackson Laboratory) at 8-12 weeks of age were euthanized by using CO2 inhalation method and liver was immediately frozen on dry ice. To 100 mg liver was added 1 mL ice-cold tissue lysis buffer (20 mM Tris-HCl pH 7.5, 150 mM NaCl, 1 mM Na2EDTA, 1 mM EGTA, 1% Triton, 2.5 mM sodium pyrophosphate, 1 mM 3-glycerophosphate, 1 mM Na3VO4, 1 μg/mL leupeptin, 1 tablet of protease inhibitor cocktail (Roche) per 10 mL lysis buffer) followed by homogenization on ice with Power Gen 125 homogenizer (Fisher Scientific). After 30 min incubation on ice, tissue lysate was passed through a 10 mL syringe with 18½ G needle for 10 times to shear DNA. The lysate was then subject to 17.5%-35% saturated ammonium sulfate precipitation by adding 880 mg ammonium sulfate powder (Sigma) to 10 mL liver lysate in 10 min with stirring on ice. Sample was centrifuged at 14,000 rpm (Eppendorf) at 4° C. for 10 min and supernatant was saved for further precipitation by adding 880 mg ammonium sulfate powder to 10 ml supernatant in 10 min with stirring on ice. Sample was centrifuged at 14,000 rpm at 4° C. for 10 min. Supernatant was discarded and pellet was dissolved in 10 mL sample buffer (100 mM Tris-HCl, pH 7.5, 1 mM EDTA, 0.1 mM DTT, 0.5 M NaCl, and 5% glycerol). The sample was then added with 1 mL of Strep Mag beads slurry (Genscript) and rotated at 4° C. for 1 hour. Supernatant was discarded and beads were washed with sample buffer for 3 times. Protein was then eluted by adding 10 mL of 2 mM biotin (Promega) prepared in sample buffer. The eluate was then dialyzed at 4° C. for 1 hour by using Slide-A-Lyzer™ Dialysis Cassettes 10K MWCO (Thermo Fisher Scientific) against 3 changes of 200 mL dialysis buffer (50 mM HEPES, pH 7.5, 0.1 mM DTT, 1.0 mM EDTA, and 10% glycerol). Total protein concentration was then quantitated by using BCA protein assay kit (Pierce).
For ACC enzymatic activity assay, 1 μL serial diluted compounds prepared in DMSO in duplicate were mixed with 8 μL dialyzed sample at 37° C. for 10 min. Ninety one L of reaction buffer (50 mM HEPES pH 7.5, 10 mM MgCl2, 2.0 mM DTT, 0.5 mM acetyl-CoA, 4.0 mM ATP, 15 mM ^13C-NaHCO3, 0.75 mg/mL BSA, 0.5 mM sodium citrate) was added to the tube and mixed thoroughly. After incubation at 37° C. for 1 hour, 300 μl ice-cold quenching buffer (acetonitrile:methanol=1:1, 20 μM carbutamide as internal standard) was added to each tube and mixed well to terminate the reaction. Samples were centrifuged at 14,000 rpm for 10 min (Eppendorf) and supernatant was loaded onto LC-MS/MS for quantitation of malonyl-^13C-CoA (Gao et al., Journal of chromatography B, Analytical technologies in the biomedical and life sciences 853, 303-313 (2007)).
Shimadzu LC system was used for sample analysis consisting of system controller (Shimadzu CBM-20A), autosampler (Shimadzu SIL-20A), pump A and B (Shimadzu LC-20AD), column oven (Shimadzu CTO-20A), and analytical column (Phenomenex Gemini 5u C18 11A, 100×2 mm). LC was running at 200 μL/min in the binary gradient mode with mobile phase A (5 mM Ammonium Acetate and 5 mM DMBA in water (1,3-Dimethylbutylamine)) and B (methanol). The samples were analyzed on an AB Sciex QTrap4000 LC-MS/MS triple quadrupole mass spectrometer (Applied Biosystems). Malonyl-CoA and malonyl-13C-CoA were monitored in positive ion mode following MRM transitions at 854.2/347.1 and 855.1/246.1, respectively. The product and internal standard were coeluted to the mass spectrometer in 3 s with 50% H2O, 25% MeCN, 25% acetone, and 5 mM ammonium acetate. Ion chromatograms were integrated using the Analyst 1.5.2 software. Peak area ratios were compared against a standard curve and final cellular concentration of malonyl-CoA or production rate of malonyl-13C-CoA was calculated as pmoles/mg protein per minute.

[4] = system: liver triglycerides (TG) in C57BL/6J mice; assay: Chronic treatment for reducing liver triglycerides in C57BL/6J mice; format: in vivo, mouse; conditions: male C57BL/6J mice; 30 mg per kilogram body weight in PEG400, oral gavage once per day for 2 weeks; FIG. 1, vs vehicle
Experimental: Male C57BL/6J mice (Jackson Laboratory) at around 9 weeks of age were treated with vehicle (0.5% methylcellulose or PEG400) or Example 14 (30 mg per kilogram body weight, dosing solution prepared in PEG400) and Example 20 (20 mg per kilogram body weight, dosing solution prepared in 0.5% methylcellulose) by oral gavage at ˜9:00 am, once per day for 2 weeks. Concentrations of Example 14 and Example 20 were 15 mg/ml and 2 mg/ml, respectively. The dosing volumes of Example 14 and Example 20 were 2 ml per kilogram body weight and 10 ml per kilogram body weight, respectively. After 14-day treatment, animals were euthanized in CO2 at 2 hours post dose and liver was frozen and kept on dry ice. Liver TG was measured by extracting lipids with chloroform:methanol 2:1 (v/v) followed by quantitation with Infinity™ Triglycerides Reagent (Thermo Scientific).

[5] = PK study in male C57 mouse for Examples 14 and 15; format: in vivo; conditions: for concentration at 0.5 h: 0.50 h
Experimental: Pharmacokinetic studies were carried out with male C57 mouse. Compounds (Example 14 and Example 15) were each formulated in 5% DMSO+10% Solutol HS 15+85% Saline, and dosed at 1 mpk for IV injection (5 mL/kg) and 10 mpk for oral gavage (10 mUkg). Plasma samples at various time points were quantitated with LC-MS. Data reported were average of three mice.
Tables 1 and 2 below show plasma concentrations (ng/mL) and PK parameters of Example 14 in male C57 mouse after 1 mpk IV injection and 10 mpk PO gavage, respectively. The plasma concentration (ng/mL) of the acid compound, Example 15, was also measured and reported below.
Tables 3 and 4 below show plasma concentrations (ng/mL) and PK parameters of Example 15 in male C57 mouse after 1 mpk IV injection and 10 mpk PO gavage, respectively.

[6] = male, C57, mouse, plasma, iv, 1 mg/kg, Example 14 dosed 1 mpk IV, analyte = labelled compound
[7] = male, C57, mouse, plasma, po, 10 mg/kg, Example 14 dosed 10 mpk PO gavage, analyte = labelled compound
[8] = plasma, 1 mg/kg, Example 14 dosed 1 mpk IV

IC50 [3]: 11.3 nM
Compound: CCc1ccc2c(c1)C(=O)OC1(CCN(C(=O)c3cc(OC)c4cccc(OC)c4n3)CC1)C2 [Example 4, 1′-(4,8-dimethoxyquinoline-2-carbonyl)-7-ethylspiro[isochroman-3,4′-piperidin]-1-one]
IC50 [1]: 148 nM
IC50 [2]: 27.7 nM

IC50 [3]: 3.4 nM
Compound: CCc1ccc2c(c1)C(=O)OC1(CCN(C(=O)c3cc(OC)c4cccc(OC)c4c3)CC1)C2 [Example 3, 1′-(4,8-dimethoxy-2-naphthoyl)-7-ethylspiro[isochroman-3,4′-piperidin]-1-one]
IC50 [1]: 44.4 nM
IC50 [2]: 1.4 nM

Plasma Concentration, Mean ([5]; Example 14 dosed 1 mpk IV, 8.00 h, analyte = labelled compound): BLQ
Plasma Concentration, Mean ([5]; Example 14 dosed 1 mpk IV, 24.00 h, analyte = labelled compound): BLQ
F ([5]; Example 14 dosed 10 mpk PO gavage): 88%
Plasma Concentration, Mean ([5]; Example 14 dosed 10 mpk PO gavage, 24.00 h, analyte = labelled compound): BLQ
MRT ([5]; male, C57, mouse, plasma, iv, 1 mg/kg, Example 14 dosed 1 mpk IV): 24.6 min
concentration at 0.08 h ([5]; male, C57, mouse, plasma, iv, 1 mg/kg, Example 14 dosed 1 mpk IV, 0.08 h, analyte = labelled compound): 1880 ng/mL
concentration at 0.25 h [5, 6]: 1080 ng/mL
concentration at 0.5 h [5, 6]: 521 ng/mL
concentration at 1 h [5, 6]: 199 ng/mL
concentration at 2 h [5, 6]: 30 ng/mL
concentration at 4 h [5, 6]: 4.4 ng/mL
concentration at 0.25 h [5, 7]: 3660 ng/mL
concentration at 0.5 h [5, 7]: 5970 ng/mL
concentration at 1 h [5, 7]: 3160 ng/mL
concentration at 2 h [5, 7]: 1010 ng/mL
concentration at 4 h [5, 7]: 345 ng/mL
concentration at 8 h ([5]; male, C57, mouse, plasma, po, 10 mg/kg, Example 14 dosed 10 mpk PO gavage, 8.00 h, analyte = labelled compound): 125 ng/mL
Cmax [5, 7]: 6330 ng/mL
MRT [5, 7]: 96 min
Tmax [5, 7]: 25.2 min
Vd [5, 8]: 0.49 L/kg
clearance [5, 8]: 18.5 mL/min/kg
half-life [5, 8]: 19.2 min
Compound: COC(=O)c1cncc(-c2ccc3c(c2)C(=O)OC2(CCN(C(=O)c4cc(OC)c5cccc(OC)c5n4)CC2)C3)c1 [Example 14, methyl 5-(1′-(4,8-dimethoxyquinoline-2-carbonyl)-1-oxospiro[isochroman-3,4′-piperidin]-7-yl)nicotinate]
Liver TG [4]: reduced liver triglycerides; also recorded: reduced liver TG
